Assay results from US20230218765A1, “SMALL MOLECULE DEGRADERS OF SHP2 PROTEIN” (THE REGENTS OF THE UNIVERSITY OF MICHIGAN, priority 2020, published 2023).
Where two headings read alike, the source gives them in different places. Blank lines part the entries; values can stand above or below the compound they belong to.

How the values were obtained:
SHP2 [1] = target: T1, SHP2 (Homo sapiens, UniProt Q06124); test: SHP2 allosteric inhibition assay; format: biochemical; settings: 0.5 nM SHP2, 0.5 µM bisphosphorylated IRS1 peptide, DiFMUP substrate
T1 sequence (Q06124 1-593): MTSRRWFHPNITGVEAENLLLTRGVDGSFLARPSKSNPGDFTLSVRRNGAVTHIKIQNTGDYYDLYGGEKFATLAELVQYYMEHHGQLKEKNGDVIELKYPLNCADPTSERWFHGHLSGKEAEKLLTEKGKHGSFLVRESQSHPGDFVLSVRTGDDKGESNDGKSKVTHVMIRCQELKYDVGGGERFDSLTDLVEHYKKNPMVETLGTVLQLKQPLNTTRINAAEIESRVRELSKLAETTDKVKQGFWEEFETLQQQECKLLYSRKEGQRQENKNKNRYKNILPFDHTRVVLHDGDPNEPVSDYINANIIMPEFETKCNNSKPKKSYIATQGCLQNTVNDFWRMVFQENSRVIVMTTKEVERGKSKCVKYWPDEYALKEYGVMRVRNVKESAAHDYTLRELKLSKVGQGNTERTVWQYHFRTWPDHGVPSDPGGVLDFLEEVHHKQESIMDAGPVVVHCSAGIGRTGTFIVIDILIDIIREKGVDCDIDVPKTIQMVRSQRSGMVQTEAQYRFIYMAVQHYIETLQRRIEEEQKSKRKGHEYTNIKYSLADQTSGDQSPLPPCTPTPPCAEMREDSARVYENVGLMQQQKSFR
Procedure: Assay buffer conditions: 60 mM HEPES, pH 7.2, 75 mM NaCl, 75 mM KCl, 0.05% P-20, 5 mM DTT,1 mM EDTA. 0.5 nM of SHP2 was incubated with 0.5 µM of bisphosphorylated IRS1 peptide and 100 µM (top concentration 3X dilution) of the inhibitory compounds. After incubation 60 min at RT, 5 µl 200 µM substrate DiFMUP (Invitrogen) was added and incubated another 30 min at RT. […] The fluorescence signal was detected by CLARIOstar (BMG tech), excitation wavelength was 340 nm and emission wavelength was 450 nm. The inhibitor dose-response curves were analyzed by Graphpad Prism 8.

KYSE520 cell line = test: Cell growth assay (WST-8) in KYSE520; format: cell-based; settings: for IC50: KYSE520, 4 days, read-out: IC50, cell growth inhibition
Procedure: (§1) Cell viability was evaluated with a WST-8 assay (Dojindo) following the manufacturer’s instructions. Briefly, cells were seeded in 96-well cell culture plates at a density of 10,000-20,000 cells/well in 200 µL for MV4;11 cell line or 2,000-3,000 for KYSE-520 cell line of culture medium containing serial dilution of testing compounds. After 4 days of treatment, cell growth was measured by a lactate dehydrogenase-based WST-8 assay (Dojindo Molecular Technologies) using a Tecan Infinite M-1000 multimode microplate reader (Tecan US, Morrisville, NC). The WST-8 reagent was added to each well, and cells were incubated for an additional 1-2 h and read at 450 nm. The readings were normalized to the vehicle-treated cells, and the IC50 was calculated by nonlinear regression analysis using the GraphPad Prism 6 software.
(§2) Briefly, Cells were treated with indicated doses for 4 days and cell viability was determined by a colorimetric WST-8 assay.

MV4;11 cell line = test: Cell growth assay (WST-8) in MV4;11; format: cell-based; settings: for IC50: MV4;11, 4 days, read-out: IC50, cell growth inhibition
Procedure: as §1, §2

phosphorylation of ERK [2] = test: Inhibition of ERK phosphorylation (Western blot) in KYSE520 cells; format: cell-based; settings: for concentration effective in reducing the level of pERK: KYSE520, 48 h
Procedure: (§3) Western blotting and quantification were performed with regular western blot method and band quantification was performed using ImageJ. Treated cells were lysed by RIPA buffer supplemented with protease and phosphatase inhibitors. The cell lysates were separated by 4-12% SDS-PAGE gels and blotted into PVDF (polyvinylidene difluoride) membranes. The net protein bands and loading controls are calculated by deducting the background from the inverted band value. The final relative quantification values are the ratio of the net band to net loading control.
(§4) GAPDH was used as a loading control. (FIG. 3A and FIG. 3B).

phosphorylation of ERK [3] = test: Inhibition of ERK phosphorylation (Western blot) in MV4;11 cells; format: cell-based; settings: for concentration for complete inhibition of pERK: MV4;11, 48 h
Procedure: as §3, §4

SHP2 [4] = target: T1, SHP2; test: SHP2 degradation by Western blot in MV4;11 cells
Procedure: (§5) Western blotting and quantification were performed with regular western blot method and band quantification was performed using ImageJ. Treated cells were lysed by RIPA buffer supplemented with protease and phosphatase inhibitors. […] The net protein bands and loading controls are calculated by deducting the background from the inverted band value. The final relative quantification values are the ratio of the net band to net loading control.
(§6) The treated cells were harvested and the level of SHP2 protein was examined by blot analysis. GAPDH was used as a loading control.
(§7) SHP2 protein was examined by Western blotting and the protein level was quantified by densitometry and normalized to the corresponding density of the GAPDH protein. […] Cells were treated with 100 nM of SHP2-D26 for different times. SHP2 protein was examined by Western blotting and the GAPDH protein was used as the loading control.

SHP2 [5] = target: T1, SHP2; test: SHP2 degradation by Western blot in KYSE520 cells
Procedure: as §5, §6, §7

IC50 (SHP2 [1]): 98.7 nM
IC50 (MV4;11 cell line; Homo sapiens, 96 h): 6600 nM
SMILES: CC(=O)Nc1cccc(Sc2ncc(N3CCC(C)(N)CC3)nc2N)c1Cl [Compound 5, N-(3-((3-amino-5-(4-amino-4-methylpiperidin-l-yl)pyrazin-2-yl)t′hio)-2-chlorophenyl)acetamide]
IC50 (KYSE520 cell line; Homo sapiens, KYSE-520, 96 h): 39400 nM

IC50 (MV4;11 cell line; Homo sapiens, 96 h): 9.9 nM
% of SHP2 protein degradation in MV4;11 cell line (SHP2 [4]; 0.1 µM): >95%
DC50 (SHP2 [4]; read-out: DC50 (concentration needed to induced targeted protein degradation by 50%), MV4;11, 12 h): 2.6 nM
% of SHP2 protein degradation in KYSE520 cell line (SHP2 [5]; 0.1 µM): >95%
% of SHP2 protein degradation in KYSE520 cell line (SHP2 [5]; 1 µM): >95%
time to reduce the SHP2 protein level (SHP2 [5]; KYSE520, 100 nM): ≤ 4 h
treatment time for essentially complete SHP2 depletion (SHP2 [5]; KYSE520, 100 nM): 8 h
DC50 (SHP2 [5]; read-out: DC50 (concentration needed to induced targeted protein degradation by 50%), KYSE520, 12 h): 6 nM
SMILES: Cc1ncsc1-c1ccc([C@@H](C)NC(=O)[C@H]2C[C@H](O)CN2C(=O)[C@H](NC(=O)CCCCCCCCN2CCN(C(=O)CCC(=O)Nc3cccc(Sc4ncc(N5CCC(C)(N)CC5)nc4N)c3Cl)CC2)C(C)(C)C)cc1 [Compound 26]
times more potent than SHP099 in inhibition of pERK (phosphorylation of ERK [2]; KYSE520): > 30 times
concentration effective in reducing the level of pERK (phosphorylation of ERK [2]): 100 nM
times more potent than SHP099 in inhibition of pERK (phosphorylation of ERK [3]; MV4;11): > 30 times
concentration for complete inhibition of pERK (phosphorylation of ERK [3]): 100 nM
IC50 (KYSE520 cell line; Homo sapiens, KYSE-520, 96 h): 660 nM
times more potent than SHP099 in inhibiting cell growth (KYSE520 cell line; KYSE520): 28 times
times more potent than compound 4 in inhibiting cell growth (KYSE520 cell line; KYSE520): 64 times
times more potent than compound 5 in inhibiting cell growth (KYSE520 cell line; KYSE520): 60 times
times more potent than SHP099 in cell growth inhibition (MV4;11 cell line; MV4;11): 100 times
times more potent than compound 4 in cell growth inhibition (MV4;11 cell line; MV4;11): > 400 times
times more potent than compound 5 in cell growth inhibition (MV4;11 cell line; MV4;11): > 600 times

IC50 (MV4;11 cell line): 1000 nM
SMILES: CC1(N)CCN(c2cnc(-c3cccc(Cl)c3Cl)c(N)n2)CC1 [SHP099, reference compound]
concentration effective in reducing the level of pERK (phosphorylation of ERK [2]): > 3,000 nM
concentration for complete inhibition of pERK (phosphorylation of ERK [3]): > 3,000 nM
IC50 (KYSE520 cell line): 18200 nM
